Among the test systems are HCT-15 colon; HCC-2998 colon; SK-MEL-2 melanoma; M14 melanoma; TK-10 renal; RXF 393 renal; IGROV1 ovarian; NCI-H226 lung; UACC-257 melanoma; CCRF-CEM leukemia.
What all share (experiment): DTP human tumour cell line panel, 48 h

Values joined by “and” are separate entries in the source; they are usually repeats but may differ in a detail not shown here. Equal values may be shown once.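 The compound was tested at five concentrations on cells cultured in 96-well plates, with a 48-hour exposure period. At the GI50, growth is halved. At the TGI there is no net growth.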 A value given as a limit tells only on which side of the number the result lay.

The term GI50 denotes the concentration giving 50% growth inhibition. A word on the TGI: it is the concentration at which net growth stops.

As to `CCCC[n+]1c(/C=C\c2c(OC)cc(OC)cc2OC)ccc2ccccc21`, the GI50 was 2840 nM in the experiment on HCT-15 colon; 946 nM with HCC-2998 colon; 1080 nM with SK-MEL-2 melanoma; 1180 nM in the experiment with M14 melanoma; 1550 nM in the experiment with TK-10 renal; 1590 nM in the experiment with RXF 393 renal. Moreover, the GI50 with IGROV1 ovarian is 1090 nM; in the experiment with NCI-H226 lung, 1920 nM; with UACC-257 melanoma, 380 nM; with CCRF-CEM leukemia it was 1480 nM. Moreover, the TGI in the experiment with HCT-15 colon amounted to 12300 nM; in the experiment with HCC-2998 colon it was 7830 nM; in the experiment with SK-MEL-2 melanoma it was 2740 nM; with M14 melanoma, 2810 nM; in the experiment on TK-10 renal it was 6260 nM; with RXF 393 renal, 5870 nM. For the same compound, the TGI in the experiment with IGROV1 ovarian came out at 6700 nM; with NCI-H226 lung it was 12600 nM; in the experiment with UACC-257 melanoma it was 2790 nM; in the experiment on CCRF-CEM leukemia, 18400 nM.

`Cc1cccc2nc3cccc(C(=O)NCCNCCNCCNC(=O)c4cccc5nc6cccc(C)c6nc45)c3nc12`: the GI50 in the experiment with HCT-15 colon was 26.8 nM; in the experiment on HCC-2998 colon, 41.6 nM; in the experiment with SK-MEL-2 melanoma it was less than 10 nM; in the experiment with M14 melanoma, less than 24.1 nM; in the experiment on TK-10 renal, less than 14.7 nM; in the experiment on RXF 393 renal it was less than 14.9 nM. Further, the GI50 in the experiment with IGROV1 ovarian was less than 10 nM; in the experiment with NCI-H226 lung it was less than 12.8 nM; with UACC-257 melanoma, 55.7 nM; in the experiment with CCRF-CEM leukemia, 85.9 nM. Also, the TGI was greater than 100000 nM with HCT-15 colon; 837 nM in the experiment on HCC-2998 colon; 186 nM in the experiment on SK-MEL-2 melanoma; 1700 nM in the experiment on M14 melanoma; 846 nM in the experiment with TK-10 renal; 228 nM in the experiment on RXF 393 renal. Further, the TGI with IGROV1 ovarian was greater than 39300 nM; in the experiment with NCI-H226 lung, 274 nM; in the experiment on UACC-257 melanoma it was 1760 nM; in the experiment with CCRF-CEM leukemia it was 2860 nM.

Take `c1ccc(Nc2nc(-c3ccccn3)cs2)nc1`: the GI50 was 172 nM with HCT-15 colon; 516 nM in the experiment with HCC-2998 colon; 442 nM in the experiment on SK-MEL-2 melanoma; 258 nM in the experiment with M14 melanoma; 573 nM with TK-10 renal; 1980 nM in the experiment with RXF 393 renal. Moreover, the GI50 in the experiment on IGROV1 ovarian is 464 nM; with NCI-H226 lung, 1000 nM; in the experiment on UACC-257 melanoma, 496 nM; with CCRF-CEM leukemia, 259 nM. Besides, the TGI was greater than 89200 nM in the experiment with HCT-15 colon; 24700 nM in the experiment on HCC-2998 colon; 30400 nM in the experiment with SK-MEL-2 melanoma; greater than 100000 nM in the experiment on TK-10 renal; greater than 100000 nM with RXF 393 renal; 5800 nM in the experiment on IGROV1 ovarian. Moreover, the figures for the TGI in the experiment with NCI-H226 lung, in the experiment with UACC-257 melanoma and in the experiment with CCRF-CEM leukemia were greater than 63100 nM, 15400 nM and greater than 29600 nM, respectively.

Turning to `C/C(=N\NC(=S)N1CCN(C2CCCCCC2)CC1)c1ccccn1`, the concentration for 50% growth inhibition (GI50) with HCT-15 colon is less than 1 nM; in the experiment on HCC-2998 colon, 1400 nM; with SK-MEL-2 melanoma, 2020 nM; in the experiment with M14 melanoma, less than 1 nM; in the experiment with TK-10 renal it was 420 nM; in the experiment with RXF 393 renal, 2450 nM. The concentration for 50% growth inhibition (GI50) was less than 1 nM with IGROV1 ovarian, 2880 nM in the experiment with NCI-H226 lung, less than 1 nM in the experiment on UACC-257 melanoma and less than 1 nM in the experiment on CCRF-CEM leukemia. The TGI in the experiment on HCT-15 colon was 3550 nM and 2100 nM; with HCC-2998 colon, 3300 nM and 2080 nM; in the experiment on SK-MEL-2 melanoma it was 9660 nM and 3160 nM; in the experiment on M14 melanoma it was 2850 nM and 1200 nM; in the experiment on TK-10 renal, 3340 nM; in the experiment on RXF 393 renal, 2500 nM. In addition, the TGI in the experiment with IGROV1 ovarian was 3700 nM; in the experiment on NCI-H226 lung it was 2700 nM; in the experiment on UACC-257 melanoma, 1210 nM; with CCRF-CEM leukemia, 291 nM and 2400 nM.

For `CC[C@@H](C(=O)[C@H](C)[C@H](O)[C@@H](C)[C@H]1O[C@H]([C@@H](CC)C(=O)O)CC[C@H]1C)C1O[C@]2(C=C[C@@H](O)[C@]3(CC[C@@](C)([C@H]4CC[C@](O)(CC)[C@H](C)O4)O3)O2)[C@H](C)C[C@@H]1C` (some centres undefined), the GI50 in the experiment with HCT-15 colon was 639 nM; in the experiment on HCC-2998 colon, 178 nM; in the experiment on SK-MEL-2 melanoma, 1270 nM; with M14 melanoma, 1130 nM; in the experiment with TK-10 renal it was 1680 nM; with RXF 393 renal it was 62.1 nM. In addition, the GI50 in the experiment with IGROV1 ovarian is 2070 nM; with NCI-H226 lung, 598 nM; in the experiment with UACC-257 melanoma it was 230 nM; in the experiment on CCRF-CEM leukemia, 283 nM. The concentration for total growth inhibition (TGI) in the experiment on HCT-15 colon worked out at 26500 nM; in the experiment on HCC-2998 colon it was 11900 nM; in the experiment with SK-MEL-2 melanoma, 4500 nM; in the experiment with M14 melanoma, 2890 nM; with TK-10 renal it was 83100 nM; with RXF 393 renal it was 1470 nM. The TGI with IGROV1 ovarian was greater than 100000 nM; with NCI-H226 lung, 5830 nM; in the experiment on UACC-257 melanoma, 6980 nM; in the experiment on CCRF-CEM leukemia, 12300 nM.

On to `COc1cccc(-n2cc(-c3nc(Nc4cc(C)[nH]n4)c4ccccc4n3)nn2)c1`, for which the GI50 with HCT-15 colon is 228 nM; in the experiment on HCC-2998 colon, 5860 nM; in the experiment on SK-MEL-2 melanoma it was 1710 nM; in the experiment on M14 melanoma it was 1100 nM; with TK-10 renal, 438 nM; in the experiment on RXF 393 renal, 1450 nM. Further, the GI50 was 1690 nM in the experiment with IGROV1 ovarian, 4020 nM in the experiment with NCI-H226 lung, 7750 nM with UACC-257 melanoma and 2820 nM in the experiment with CCRF-CEM leukemia. In addition, the TGI with HCT-15 colon is 9230 nM; with HCC-2998 colon, 13300 nM; in the experiment with SK-MEL-2 melanoma it was 9270 nM; with M14 melanoma, 9510 nM; with TK-10 renal it was 8420 nM; in the experiment on RXF 393 renal, 8920 nM. Also, the TGI in the experiment on IGROV1 ovarian amounted to 10100 nM; with NCI-H226 lung, 10600 nM; in the experiment on UACC-257 melanoma, 15000 nM; in the experiment on CCRF-CEM leukemia, 16800 nM.

Turning to `Nc1ccccc1NC(=O)c1ccc(CN2CCC/C(=C\c3ccccn3)C2=O)cc1`, the GI50 is 1110 nM in the experiment on HCT-15 colon; 1860 nM with HCC-2998 colon; 1570 nM in the experiment on SK-MEL-2 melanoma; 1050 nM in the experiment on M14 melanoma; 107 nM with TK-10 renal; 755 nM in the experiment on RXF 393 renal. The GI50 is 1100 nM in the experiment on IGROV1 ovarian, 2620 nM in the experiment on NCI-H226 lung, 1150 nM with UACC-257 melanoma and 645 nM in the experiment with CCRF-CEM leukemia. The TGI with HCT-15 colon is greater than 100000 nM; in the experiment on HCC-2998 colon it was 20200 nM; in the experiment on SK-MEL-2 melanoma, 11800 nM; with M14 melanoma, greater than 100000 nM; in the experiment with TK-10 renal, 4180 nM; in the experiment on RXF 393 renal, 3480 nM. Further, the TGI in the experiment with IGROV1 ovarian is greater than 100000 nM; in the experiment with NCI-H226 lung, 9590 nM; with UACC-257 melanoma it was 14800 nM; in the experiment with CCRF-CEM leukemia, greater than 100000 nM.

The values are drawn from PubChem BioAssay (NCI).
